Results: PubChem BioAssay (NCI)
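Tested at 5 concentrations; 48 h exposure; 96-well plates; endpoints linearly interpolated, else capped at highest concentration. Definition used: TGI = concentration required for complete inhibition of growth.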

Assays:
Assay in all cases: NCI tumour cell line growth inhibition, 48 h
786-0 renal = test system: 786-0 renal
A498 renal = test system: A498 renal
ACHN renal = test system: ACHN renal
BT-549 breast = test system: BT-549 breast
CAKI-1 renal = test system: CAKI-1 renal
CCRF-CEM leukemia = test system: CCRF-CEM leukemia
COLO 205 colon = test system: COLO 205 colon
DU-145 prostate = test system: DU-145 prostate
EKVX NSCLC = test system: EKVX NSCLC
HCC-2998 colon = test system: HCC-2998 colon
HCT-116 colon = test system: HCT-116 colon
HCT-15 colon = test system: HCT-15 colon
HL-60(TB) leukemia = test system: HL-60(TB) leukemia
HOP-62 NSCLC = test system: HOP-62 NSCLC
HOP-92 NSCLC = test system: HOP-92 NSCLC
HS 578T breast = test system: HS 578T breast
HT29 colon = test system: HT29 colon
IGROV1 ovarian = test system: IGROV1 ovarian
K-562 leukemia = test system: K-562 leukemia
KM12 colon = test system: KM12 colon
LOX IMVI melanoma = test system: LOX IMVI melanoma
M14 melanoma = test system: M14 melanoma
MCF7 breast = test system: MCF7 breast
MDA-MB-231 breast = test system: MDA-MB-231 breast
MDA-MB-435 = test system: MDA-MB-435
MOLT-4 leukemia = test system: MOLT-4 leukemia
NCI-H226 lung = test system: NCI-H226 lung
NCI-H23 lung = test system: NCI-H23 lung
NCI-H460 lung = test system: NCI-H460 lung
NCI/ADR-RES ovarian = test system: NCI/ADR-RES ovarian
OVCAR-4 ovarian = test system: OVCAR-4 ovarian
OVCAR-8 ovarian = test system: OVCAR-8 ovarian
PC-3 prostate = test system: PC-3 prostate
RPMI-8226 leukemia = test system: RPMI-8226 leukemia
RXF 393 renal = test system: RXF 393 renal
SF-268 CNS = test system: SF-268 CNS
SF-295 CNS = test system: SF-295 CNS
SF-539 CNS = test system: SF-539 CNS
SK-MEL-2 melanoma = test system: SK-MEL-2 melanoma
SK-MEL-28 melanoma = test system: SK-MEL-28 melanoma
SK-MEL-5 melanoma = test system: SK-MEL-5 melanoma
SK-OV-3 ovarian = test system: SK-OV-3 ovarian
SNB-19 CNS = test system: SNB-19 CNS
SNB-75 CNS = test system: SNB-75 CNS
SR leukemia = test system: SR leukemia
SW-620 colon = test system: SW-620 colon
T-47D breast = test system: T-47D breast
TK-10 renal = test system: TK-10 renal
U251 CNS = test system: U251 CNS
UACC-257 melanoma = test system: UACC-257 melanoma
UACC-62 melanoma = test system: UACC-62 melanoma
UO-31 renal = test system: UO-31 renal
A549 NSCLC = test system: A549 NSCLC
MALME-3M melanoma = test system: MALME-3M melanoma
NCI-H522 lung = test system: NCI-H522 lung
OVCAR-3 ovarian = test system: OVCAR-3 ovarian
OVCAR-5 ovarian = test system: OVCAR-5 ovarian
SN12C renal = test system: SN12C renal

## NC(=O)c1c2c(n3ccccc13)C(=O)c1ccccc1C2=O
786-0 renal
  TGI: > 100 µM
A498 renal
  TGI: > 100 µM
ACHN renal
  TGI: > 100 µM
BT-549 breast
  TGI: > 100 µM
CAKI-1 renal
  TGI: > 100 µM
CCRF-CEM leukemia
  TGI: > 100 µM
COLO 205 colon
  TGI: > 100 µM
DU-145 prostate
  TGI: > 100 µM
EKVX NSCLC
  TGI: > 100 µM
HCC-2998 colon
  TGI: > 100 µM
HCT-116 colon
  TGI: > 100 µM
HCT-15 colon
  TGI: > 100 µM
HL-60(TB) leukemia
  TGI: > 100 µM
HOP-62 NSCLC
  TGI: > 100 µM
HOP-92 NSCLC
  TGI: > 100 µM
HS 578T breast
  TGI: > 100 µM
HT29 colon
  TGI: > 100 µM
IGROV1 ovarian
  TGI: > 100 µM
K-562 leukemia
  TGI: > 100 µM
KM12 colon
  TGI: > 100 µM
LOX IMVI melanoma
  TGI: > 100 µM
M14 melanoma
  TGI: > 100 µM
MCF7 breast
  TGI: > 100 µM
MDA-MB-231 breast
  TGI: 93 µM
MDA-MB-435
  TGI: 44 µM
MOLT-4 leukemia
  TGI: > 100 µM
NCI-H226 lung
  TGI: > 100 µM
NCI-H23 lung
  TGI: 36.4 µM
NCI-H460 lung
  TGI: 82.5 µM
NCI/ADR-RES ovarian
  TGI: > 100 µM
OVCAR-4 ovarian
  TGI: > 100 µM
OVCAR-8 ovarian
  TGI: > 100 µM
PC-3 prostate
  TGI: > 100 µM
RPMI-8226 leukemia
  TGI: > 100 µM
RXF 393 renal
  TGI: > 100 µM
SF-268 CNS
  TGI: > 100 µM
SF-295 CNS
  TGI: > 100 µM
SF-539 CNS
  TGI: > 100 µM
SK-MEL-2 melanoma
  TGI: > 100 µM
SK-MEL-28 melanoma
  TGI: > 100 µM
SK-MEL-5 melanoma
  TGI: 37 µM
SK-OV-3 ovarian
  TGI: > 100 µM
SNB-19 CNS
  TGI: > 100 µM
SNB-75 CNS
  TGI: > 100 µM
SR leukemia
  TGI: > 100 µM
SW-620 colon
  TGI: > 100 µM
T-47D breast
  TGI: > 100 µM
TK-10 renal
  TGI: > 100 µM
U251 CNS
  TGI: > 100 µM
UACC-257 melanoma
  TGI: > 100 µM
UACC-62 melanoma
  TGI: > 100 µM
UO-31 renal
  TGI: > 100 µM

## CC(C)(OCc1ccccc1)c1ccccc1P(c1ccccc1)c1ccccc1
786-0 renal
  TGI: > 100 µM
A498 renal
  TGI: > 100 µM
A549 NSCLC
  TGI: > 100 µM
ACHN renal
  TGI: > 100 µM
BT-549 breast
  TGI: > 100 µM
CAKI-1 renal
  TGI: > 100 µM
COLO 205 colon
  TGI: > 100 µM
DU-145 prostate
  TGI: > 100 µM
EKVX NSCLC
  TGI: 91.2 µM
HCT-116 colon
  TGI: > 100 µM
HCT-15 colon
  TGI: > 100 µM
HL-60(TB) leukemia
  TGI: 62.9 µM
HOP-62 NSCLC
  TGI: > 100 µM
HOP-92 NSCLC
  TGI: > 100 µM
HS 578T breast
  TGI: > 100 µM
HT29 colon
  TGI: > 100 µM
IGROV1 ovarian
  TGI: > 100 µM
K-562 leukemia
  TGI: > 100 µM
KM12 colon
  TGI: 58 µM
M14 melanoma
  TGI: > 100 µM
MALME-3M melanoma
  TGI: > 100 µM
MCF7 breast
  TGI: > 100 µM
MDA-MB-231 breast
  TGI: > 100 µM
MDA-MB-435
  TGI: > 100 µM
MOLT-4 leukemia
  TGI: 84.5 µM
NCI-H226 lung
  TGI: > 100 µM
NCI-H23 lung
  TGI: 94 µM
NCI-H460 lung
  TGI: > 100 µM
NCI-H522 lung
  TGI: > 100 µM
NCI/ADR-RES ovarian
  TGI: > 100 µM
OVCAR-3 ovarian
  TGI: > 100 µM
OVCAR-4 ovarian
  TGI: > 100 µM
OVCAR-5 ovarian
  TGI: > 100 µM
OVCAR-8 ovarian
  TGI: > 100 µM
PC-3 prostate
  TGI: > 100 µM
RPMI-8226 leukemia
  TGI: 22.8 µM
RXF 393 renal
  TGI: > 100 µM
SF-268 CNS
  TGI: > 100 µM
SF-295 CNS
  TGI: > 100 µM
SF-539 CNS
  TGI: > 100 µM
SK-MEL-2 melanoma
  TGI: > 100 µM
SK-MEL-28 melanoma
  TGI: > 100 µM
SK-MEL-5 melanoma
  TGI: > 100 µM
SK-OV-3 ovarian
  TGI: > 100 µM
SN12C renal
  TGI: > 100 µM
SNB-19 CNS
  TGI: > 100 µM
SNB-75 CNS
  TGI: > 100 µM
SR leukemia
  TGI: > 100 µM
SW-620 colon
  TGI: > 100 µM
T-47D breast
  TGI: > 100 µM
TK-10 renal
  TGI: > 100 µM
U251 CNS
  TGI: > 100 µM
UACC-257 melanoma
  TGI: > 100 µM
UACC-62 melanoma
  TGI: > 100 µM
UO-31 renal
  TGI: > 100 µM
